The data set addresses DGAT2. The following applies: ASO.

Where “and” joins values, the source holds several entries; their conditions need not be identical. Equal values may be shown once. After the bases stand the sugars from the 5' end (letter, count) and the backbone: PS all phosphorothioate, else s phosphorothioate and o phosphodiester by linkage. Methylation of C is not given here. e = 2'-O-(2-methoxyethyl) (MOE); d = 2'-deoxy (DNA)

As for “GTCTGGGAACAGCAGCATCA (sugars e5 d10 e5, PS)”, the target mRNA inhibition was found to be 72% (HepG2, 2.5 µM) and 89% (HepG2, 10 µM). “AGGTAAGGCCGTATGCCTGG (sugars e5 d10 e5, PS)” displayed a target mRNA inhibition (HepG2, 0.12 µM) of 72%. Regarding “TAGCTCTCAGTGAAGCTGGA (sugars e5 d10 e5, PS)”, the target mRNA inhibition (HepG2, 2.5 µM) is 84% and 81%; the target mRNA inhibition (HepG2, 10 µM) is 90% and 91%. The sequence “TATAATTTCTTTTAAATAAC (sugars e5 d10 e5, PS)” registered a target mRNA inhibition (HepG2, 0.12 µM) of 0%. “GAAAACTTAGGCATGCTTCC (sugars e5 d10 e5, PS)” returned a target mRNA inhibition (HepG2, 2.5 µM) of 59% and a target mRNA inhibition (HepG2, 10 µM) of 92%. For the setting “HepG2, 0.12 µM”, “CCAGCCCCCAGGTGTCGGAG (sugars e5 d10 e5, PS)” yielded a target mRNA inhibition of 50%. With “GTCAGCAGGTTGTGTGTCTT (sugars e5 d10 e5, PS)”, the target mRNA inhibition reads like this: (HepG2, 0.12 µM) 64% and 59%; (HepG2, 2.5 µM) 30%; (HepG2, 10 µM) 76%; (HepG2, 20 µM) 93%.

Turning to “GCCACCTGCTTTGGAACTAA (sugars e5 d10 e5, PS)”, the target mRNA inhibition (HepG2, 0.12 µM) amounted to 41%. Consider “TTATAATTTCTTTTAAATAA (sugars e5 d10 e5, PS)”, for which the target mRNA inhibition (HepG2, 0.12 µM) is 0%. The same measure, in the same setting: the same measure for “TTCTGGACCCATCGGCCCCA (sugars e5 d10 e5, PS)”: 27%. On the same count and under the same terms, the same measure for “ACAGTGGTGATGGGCTTGGA (sugars e5 d10 e5, PS)”: 52%. For “TGCAGCTAATGATACAAGGT (sugars e5 d10 e5, PS)”, the target mRNA inhibition runs as follows: (HepG2, 2.5 µM) 67%; (HepG2, 10 µM) 89%. On to “ACCCAACCTTTAAGGCCTAT (sugars e5 d10 e5, PS)”, for which the target mRNA inhibition was 69% and 59% and 70% (HepG2, 2.5 µM); 93% and 91% and 95% (HepG2, 10 µM). “AGCACTGACATGGTAAGTCC (sugars e5 d10 e5, PS)”: the target mRNA inhibition is 75% and 68% (HepG2, 2.5 µM); 93% and 91% (HepG2, 10 µM). Regarding “TCCCCTTGGCAGAGAAACTG (sugars e5 d10 e5, PS)”, the target mRNA inhibition (HepG2, 0.12 µM) turned out to be 47%.

Consider “GGTTCTTGTCCTGGTCCCAG (sugars e5 d10 e5, PS)”, for which the target mRNA inhibition (HepG2, 2.5 µM) is 75% and 77%; the target mRNA inhibition (HepG2, 10 µM) was 90% and 94%. Regarding “TGGAGCTCAGAGACTCAGCC (sugars e3 d14 e3, PS)”, where the note is “HepG2, 0.12 µM”, the target mRNA inhibition worked out at 76%. Still for that read-out and setting: to “TGATAGCATTGCCACTCCCA (sugars e2 d13 e5, PS)” belongs 69%. “CTCTGCGCGATTCACTGAGG (sugars e5 d10 e5, PS)”: the target mRNA inhibition came to 53% (HepG2, 2.5 µM) and 86% (HepG2, 10 µM). For the sequence “CACCAGGGCCTCCATGTACA (sugars e2 d13 e5, PS)”, under “HepG2, 0.12 µM”, the target mRNA inhibition turned out to be 69%.

Turning to “ACAACAGCAAATATACACCA (sugars e5 d10 e5, PS)”, the target mRNA inhibition is 87% (HepG2, 2.5 µM) and 56% (HepG2, 10 µM). “TCACCAGCTGGATGGGAAAG (sugars e5 d10 e5, PS)” had a target mRNA inhibition (HepG2, 0.12 µM) of 22%. Same read-out and setting: to “CAGGCATGGAGCTCAGAGAC (sugars e5 d10 e5, PS)” belongs 57%. As for “TGCAGGCCCAGCACCAAGGA (sugars e5 d10 e5, PS)”, the target mRNA inhibition is 19% (HepG2, 2.5 µM) and 39% (HepG2, 10 µM). “CGCAGGACCCCGGAGTAGGC (sugars e5 d10 e5, PS)”: the target mRNA inhibition (HepG2, 0.12 µM) is 75% and 70%. In the case of “ATGCCAATGCCTAGGTCACA (sugars e5 d10 e5, PS)”, the target mRNA inhibition came out at 78% (HepG2, 2.5 µM) and 91% (HepG2, 10 µM).

“GCTCAGAGACTCAGCCGCAC (sugars e3 d14 e3, PS)” came in with a target mRNA inhibition (HepG2, 0.12 µM) of 69%. In the case of “GGACAGCTGTGATGACTTCC (sugars e5 d10 e5, PS)”, the target mRNA inhibition (HepG2, 2.5 µM) worked out at 55% and the target mRNA inhibition (HepG2, 10 µM) came to 76%.

Sequence “GCACTGCAGGCCACTCCCAG (sugars e5 d10 e5, PS)” returned a target mRNA inhibition (HepG2, 0.12 µM) of 37%. Turning to “ATCACAGAATTATCAGCAGT (sugars e5 d10 e5, PS)”, the target mRNA inhibition turned out to be 59% (HepG2, 2.5 µM) and 92% (HepG2, 10 µM). The corresponding values for “TCATCTTTCCAGATCCGGAC (sugars e5 d10 e5, PS)” are 76% and 89%.

In the case of “AAAGTCTGACATGGTGC (sugars e3 d10 e4, PS)”, the target mRNA inhibition reads like this: (HepG2, 2.5 µM) 48%; (HepG2, 10 µM) 81%. Under “HepG2, 0.12 µM”, “GCAGGTTGTGTGTCTTCACC (sugars e3 d14 e3, PS)” returned a target mRNA inhibition of 69%. On the same count and under the same terms, to “GTTCCTGGTGGTCAGCAGGT (sugars e5 d10 e5, PS)” belongs 63%.

Turning to “GCACTGACATGGTAAGTCCT (sugars e5 d10 e5, PS)”, the target mRNA inhibition is 87% and 79% (HepG2, 2.5 µM); 93% and 89% (HepG2, 10 µM). As for “GGGTCAAGGTCACTCAGCCA (sugars e5 d10 e5, PS)”, the target mRNA inhibition (HepG2, 0.12 µM) was found to be 33%. On the same count and under the same terms, the same measure for “CGCGCAGGACCCCGGAGTAG (sugars e5 d10 e5, PS)”: 74%; for “ACTTTTTCCTTCTTAAAAAA (sugars e5 d10 e5, PS)”: 0%.

In the case of “GTTTACTGCATAGCTGAGCA (sugars e5 d10 e5, PS)”, the target mRNA inhibition reads like this: (HepG2, 2.5 µM) 69% and 82%; (HepG2, 10 µM) 79% and 96%.

For “GTTGCAATGTTGCCATC (sugars e3 d10 e4, PS)”, the target mRNA inhibition (HepG2, 2.5 µM) was 69% and 75%; the target mRNA inhibition (HepG2, 10 µM) is 89% and 96%. “AAGGTAAACTGAGGCCACCA (sugars e5 d10 e5, PS)” registered a target mRNA inhibition (HepG2, 0.12 µM) of 37%.

For the setting “HepG2, 0.12 µM”, “GACCCACTGGAGCACTGAGA (sugars e3 d14 e3, PS)” registered a target mRNA inhibition of 56%. On the same count and under the same terms, the same measure for “AGGAAGGAAATGCTAGGCCT (sugars e5 d10 e5, PS)”: 64%. With “TCGCTAGAGTACAAGTTCTC (sugars e5 d10 e5, PS)”, the target mRNA inhibition runs as follows: (HepG2, 2.5 µM) 88%; (HepG2, 10 µM) 93%. As for “TGGCTCTCTAGATAGGGTGG (sugars e5 d10 e5, PS)”, the target mRNA inhibition (HepG2, 2.5 µM) is 84% and 85%; the target mRNA inhibition (HepG2, 10 µM) is 89% and 87%. On to “AAAACCAGTTACTCCACCTA (sugars e5 d10 e5, PS)”, for which, for the setting “HepG2, 0.12 µM”, the target mRNA inhibition amounted to 0%.

Where the note is “HepG2, 0.12 µM”, “CAGGTAAGGCCGTATGCCTG (sugars e2 d13 e5, PS)” yielded a target mRNA inhibition of 59%. With “TCATACTAGACTATGCAGCC (sugars e5 d10 e5, PS)”, the target mRNA inhibition (HepG2, 2.5 µM) was determined as 72% and the target mRNA inhibition (HepG2, 10 µM) was 85%. For “GCACTAAGCTAGGCACACCC (sugars e5 d10 e5, PS)”, the target mRNA inhibition by setting is: (HepG2, 2.5 µM) 62%; (HepG2, 10 µM) 90%. As for “TATGCCTGGGAACTTCTTGC (sugars e5 d10 e5, PS)”, the target mRNA inhibition (HepG2, 0.12 µM) stood at 26%. For “CAGCACTGACATGGTAAGTC (sugars e5 d10 e5, PS)”, the target mRNA inhibition runs as follows: (HepG2, 2.5 µM) 79% and 69%; (HepG2, 10 µM) 92% and 97%.

“CAGGACCCACTGGAGCACTG (sugars e3 d14 e3, PS)” registered a target mRNA inhibition (HepG2, 0.12 µM) of 71%. The same measure, in the same setting: the same measure for “AGGCCACAGTGGCAACAGAG (sugars e5 d10 e5, PS)”: 54%. For the sequence “CTCACATGCCTGAGGGCAGC (sugars e5 d10 e5, PS)”, the target mRNA inhibition by setting is: (HepG2, 2.5 µM) 65%; (HepG2, 10 µM) 87%. For the sequence “GATTCAAATCTGTGTGACCT (sugars e5 d10 e5, PS)”, the target mRNA inhibition (HepG2, 2.5 µM) was 64% and 83%; the target mRNA inhibition (HepG2, 10 µM) was 89% and 92%. Consider “TCTTCTGGACCCATCGGCCC (sugars e5 d10 e5, PS)”, for which the target mRNA inhibition (HepG2, 0.12 µM) was found to be 37%.

In the case of “TTTCTAGGGAAGCATGTGCA (sugars e5 d10 e5, PS)”, the target mRNA inhibition (HepG2, 2.5 µM) was 67% and 68%; the target mRNA inhibition (HepG2, 10 µM) is 90% and 88%. In the case of “TCTTGTGCTTGTCGAAGAGC (sugars e5 d10 e5, PS)”, the target mRNA inhibition (HepG2, 0.12 µM) was 62%. On the same count and under the same terms, to “ACCATTTTCACAAGGAGAAG (sugars e5 d10 e5, PS)” belongs 30%. On the same count and under the same terms, to “CACTGGAGCACTGAGATGAC (sugars e2 d13 e5, PS)” belongs 61%.

Consider “ATCCTGGAGGCCAGTCCAGG (sugars e5 d10 e5, PS)”, for which the target mRNA inhibition (HepG2, 0.12 µM) was 18%. On to “CCAGGTGTCGGAGGAGAAGA (sugars e5 d10 e5, PS)”, for which the target mRNA inhibition (HepG2, 0.12 µM) was 53%. “AGGCATGCTTCCTCCCACTT (sugars e5 d10 e5, PS)” gave a target mRNA inhibition (HepG2, 2.5 µM) of 53% and a target mRNA inhibition (HepG2, 10 µM) of 85%. Regarding “CAGGGTCCTCTCCGCTGCCT (sugars e5 d10 e5, PS)”, the target mRNA inhibition is 78% and 80% (HepG2, 2.5 µM); 85% and 87% (HepG2, 10 µM). As to “CCTCTTAGAAGTAATGCTTC (sugars e5 d10 e5, PS)”, the target mRNA inhibition is 83% and 78% (HepG2, 2.5 µM); 92% and 90% (HepG2, 10 µM).

As to “GCATGGAGCTCAGAGACTCA (sugars e5 d10 e5, PS)”, the target mRNA inhibition (HepG2, 0.12 µM) is 69%.

For the sequence “GGCAGATAACCACAGCGATA (sugars e5 d10 e5, PS)”, the target mRNA inhibition reads like this: (HepG2, 2.5 µM) 75%; (HepG2, 10 µM) 84%. The corresponding values for “GCTACTGGCATTGCTCCTCC (sugars e5 d10 e5, PS)” are 42% and 81%.

Take “CTTCTTGCTCACTTCTGTGG (sugars e5 d10 e5, PS)”: the target mRNA inhibition (HepG2, 0.12 µM) is 25%.

In the case of “CAAAGATATAGTTCCTGGTG (sugars e5 d10 e5, PS)”, under “HepG2, 0.12 µM”, the target mRNA inhibition stood at 61%. Same read-out and setting: to “GAAGGCACCCAGGCCCATGA (sugars e5 d10 e5, PS)” belongs 38%. For “CACCAGGGCCTCCATGTACA (sugars e5 d10 e5, PS)”, the target mRNA inhibition was 31% (HepG2, 2.5 µM); 69% (HepG2, 10 µM); 26% (HepG2, 20 µM). On to “CCTCCTCGAAGATCACCTGC (sugars e5 d10 e5, PS)”, for which the target mRNA inhibition (HepG2, 0.12 µM) came out at 49%. With “CAAACAGATTAAAGTTGCTC (sugars e5 d10 e5, PS)”, the target mRNA inhibition reads like this: (HepG2, 2.5 µM) 78% and 72%; (HepG2, 10 µM) 90% and 91%. Consider “GTTCTTGTCCTGGTCCCAGT (sugars e5 d10 e5, PS)”, for which the target mRNA inhibition runs as follows: (HepG2, 2.5 µM) 83% and 68%; (HepG2, 10 µM) 95% and 93%. Regarding “GTGATTATTCTAAAACTCAA (sugars e5 d10 e5, PS)”, the target mRNA inhibition amounted to 34% (HepG2, 2.5 µM) and 71% (HepG2, 10 µM). Taken in the same sequence, the figures for “TGAGGTTTAGGCTATGGTCT (sugars e5 d10 e5, PS)” were 66% and 77%.

The values above are taken from the OligoGym collection.
